Experimental data reported in patent publication EP4631951A1, “SYNTHETIC VACCINES AGAINST POR[…]” (Max-Planck-Gesellschaft zur Förderung der Wissenschaften …, priority 2024, dated 2025).
Entries after “also recorded” stand apart in the source; their conditions may differ.

How the values were obtained:
human IgG antibodies = test: Glycan microarray with human sera and saliva, IgG; format: binding; conditions: for IgG antibody binding: human saliva and human serum (blood); for IgG binding in CP saliva compared with healthy (and recovered) patients / IgG antibody binding in saliva, compared between glycans: human saliva; for IgG antibody binding in saliva, compared between glycans: MFI, Figures 12 and 13
Source text: (§1) Here, human sera and saliva from P. gingivalis infected patients were used to screen antibodies against the synthetic glycan library 1-11 to determine whether LPS fragments are potential leads for vaccine development.
(§2) Samples were taken from a pool of patients at the Charit6 Zahnklinik (provided by Prof. Dr. Henrik Dommisch). The dental status of three groups of patients was defined as: healthy (20 patients, no clinical indications for CP), infected (16 patients, CP stage III or stage IV) and recovered from CP (six patients). Recovered patients were treated from CP stage III or stage IV at the Charit6 Zahnklinik by resective and regenerative surgery and execution of two to four professional dental cleanings per year.
(§3) The synthesized LPS fragments of P. gingivalis were immobilized at NHS-activated carboxyl-functionalized glass slides in triplicates (Figure 10 A, B). Additionally, a positive glycan control containing the α(1→2)-trirhamnose (5.06) was used in the assay, because most humans develop antibodies against this pathogen-associated glycan

human IgA antibodies = test: Glycan microarray with human sera and saliva, IgA; format: binding; conditions: human saliva and serum
Source text: as §1, §2, §3

C57BL/6NRj mice = test: Glycan microarray analysis of antibody binding in sera of immunized mice; format: in vivo
Source text: The immunizations were approved by Landesamt für Gesundheit und Soziales Berlin, Germany (Approval ID: G 0329/18). 8 weeks old C57BL/6NRj mice (Janvier, Le Genest-Saint_Isle, France) were housed at Bundesinstitut für Risikobewertung, Berlin, Germany in groups of five animals in individually ventilated cages (Tecniplast, Hohenpeißenberg, Germany) under specific pathogen-free conditions. Housing and experiments were in accordance with institutional guidelines and with the regulations of the Federation of European Laboratory Animal Science Associations (FELASA). Mice were immunized subcutaneously (s.c.) with 1µg of glycoconjugate per injection. The glycoconjugates, together with Alum adjuvant, were diluted in sterile PBS to a final volume of 100 µL per dose. The animals were immunized on day 0 (primary immunization) and boosted on days 14, 28, and final boosting on day 196. Blood (max. 80µL) and saliva were collected every two weeks. The mice were fixed with on hand and a swap was used to collect the saliva and was afterwards centrifuged at 400 g for 5 min. After coagulation at room temperature, serum was separated by centrifugation at 2,000 g for 10 min. The sera and saliva were frozen at -20°C until further usage. [drawing 126]
Synthetic polysaccharides containing an amine linker as well as protein controls were immobilized on glass microarray slides. The slides were then quenched, blocked with 1% BSA-PBS, and stored at 4°C until use. […]
Slides were incubated for 1 hour at 37 °C in a humidification chamber, washed three times with PBST, rinsed with deionized water, and dried by centrifugation. Fluorescence signals were measured with a Genepix 4300A device (Molecular Devices, Sunnyvale, CA, USA).
The photomultiplier tube (PMT) voltage was adjusted to avoid oversaturation of the signals. Data were analyzed using GenePix Pro 7 software (Molecular Devices, Sunnyvale, CA, USA). […]

SMILES: C[C@@H]1O[C@@H](O[C@H]2[C@H](O[C@H]3[C@H](OCCCCCN)O[C@@H](C)[C@H](O)[C@H]3O)O[C@@H](C)[C@H](O)[C@H]2O)[C@H](O)[C@H](O)[C@H]1O [5.06, 5-Aminopentyl-a-(1→2)-L-trirhamnopyranoside, reference compound]
- IgG antibodies in saliva (human IgG antibodies; healthy individuals compared with CP and recovered CP patients): also observed in healthy individuals, but significantly less than in chronical periodontitis patients and recovered chronical periodontitis patients
- IgG antibody binding (human IgG antibodies): showed IgG antibody binding
- IgA antibody binding (human IgA antibodies): significant binding of IgA

SMILES: CC(=O)N[C@H]1[C@H](OCCCCCN)O[C@H](CO)[C@H](O)[C@@H]1O[C@@H]1O[C@@H](C)[C@H](O[C@H]2O[C@H](CO[C@H]3O[C@H](CO)[C@H](O)[C@H](O)[C@H]3O)[C@@H](O)[C@H](O)[C@H]2O)[C@@H](O)[C@H]1O [compound 1, 5-Aminopentyl-α-D-galactopyranosyl-(1→6)-α-D-glucopyranosyl-(1→4)-α-L-rhamnopyranosyl-(1→3)-2-acetamido-2-deoxy-B-D-galactopyranoside]
- IgM-responses (C57BL/6NRj mice; course of the experiment, response against the named glycan): remained at low levels
- IgG binding in CP saliva compared with healthy (and recovered) patients (human IgG antibodies): significantly higher than in dental healthy patients
- IgG antibody binding in saliva, compared between glycans (human IgG antibodies): strongest IgG interaction observed in these studies; also recorded: highest amount of bound IgG antibodies in this study
- IgG in serum of patients infected with P. gingivalis (human IgG antibodies; human serum): binds

SMILES: CC(=O)N[C@H]1[C@H](O[C@H]2[C@@H](O)[C@@H](CO)O[C@H](OCCCCCN)[C@@H]2O)O[C@H](CO)[C@H](O)[C@@H]1O[C@@H]1O[C@@H](C)[C@H](O)[C@@H](O)[C@H]1O [compound 2, 5-Aminopentyl-α-L-rhamnopyranosyl-(1→3)-2-acetamido-2-deoxy-β-D-galactopyranosyl-(1→3)-α-D-galactopyranoside]
- IgM levels (C57BL/6NRj mice; day 28, response against the named glycan): relatively high
- IgM response peaked (C57BL/6NRj mice; response against the named glycan in mice immunized with its CRM197 conjugate (text names only the glycan)): 14 days
- IgG binding in CP saliva compared with healthy (and recovered) patients (human IgG antibodies): stronger IgG binding observed for CP patients
- IgG antibody binding (human IgG antibodies): show binding to IgG antibodies
- IgG antibody binding in saliva, compared between glycans (human IgG antibodies): higher amount of IgG antibody binding than to rhamnose monomer 9

SMILES: CC(=O)N[C@H]1[C@H](O[C@H]2[C@@H](O)[C@@H](CO)O[C@H](OCCCCCN)[C@@H]2O)O[C@H](CO)[C@H](O)[C@@H]1O[C@@H]1O[C@@H](C)[C@H](O[C@H]2O[C@H](CO)[C@@H](O)[C@H](O)[C@H]2O)[C@@H](O)[C@H]1O [compound 3, 5-Amino-pentyl α-D-glucopyranosyl-(1→4)-α-L-rhamnopyranosyl-(1→3)-2-acetamido-2-deoxy-β-D-galactopyranosyl-(1→3)-α-D-galactopyranoside]
- IgG antibody binding (human IgG antibodies): showed IgG antibody binding; also recorded: show binding to IgG antibodies

SMILES: CC(=O)N[C@H]1[C@H](O[C@H]2[C@@H](O)[C@@H](CO)O[C@H](OC[C@H]3O[C@H](O[C@@H]4[C@@H](O)[C@@H](O)[C@H](OCCCCCN)O[C@H]4C)[C@H](O)[C@@H](O)[C@@H]3O)[C@@H]2O)O[C@H](CO)[C@H](O)[C@@H]1O [compound 4, 5-Aminopentyl-2-acetamido-2-deoxy-β-D-galactopyranosyl-(1→3)-α-D-galactopyranosyl-(1→6)-α-D-glucopyranosyl-(1→4)-α-L-rhamnopyranoside]
- IgG antibody binding (human IgG antibodies): showed IgG antibody binding
- IgG antibody binding in saliva, compared between glycans (human IgG antibodies): higher IgG antibody binding than 5 tetrasaccharide

SMILES: CC(=O)N[C@H]1[C@H](O[C@H]2[C@@H](O)[C@@H](CO)O[C@H](OC[C@H]3O[C@H](OCCCCCN)[C@H](O)[C@@H](O)[C@@H]3O)[C@@H]2O)O[C@H](CO)[C@H](O)[C@@H]1O[C@@H]1O[C@@H](C)[C@H](O)[C@@H](O)[C@H]1O [compound 5, 5-Aminopentyl-α-L-rhamnopyranosyl-(1→3)-2-acetamido-2-deoxy-β-D-galactopyranosyl-(1→3)-α-D-galactopyranosyl-(1→6)-α-D-glucopyranoside]
- IgG antibody binding (human IgG antibodies): showed IgG antibody binding; also recorded: show binding to IgG antibodies

SMILES: NCCCCCO[C@H]1O[C@H](CO[C@H]2O[C@H](CO)[C@H](O)[C@H](O)[C@H]2O)[C@@H](O)[C@H](O)[C@H]1O [compound 7]
- IgG antibody binding (human IgG antibodies): showed IgG antibody binding; also recorded: show binding to IgG antibodies
- IgG antibody binding in saliva, compared between glycans (human IgG antibodies): bind significantly less IgG
- IgA antibody binding (human IgA antibodies): significant binding of IgA

SMILES: NCCCCCO[C@H]1O[C@H](CO)[C@H](O)[C@H](O)[C@H]1O [compound 11, 5-Aminopentyl α-D-galactopyranoside]
- IgG antibody binding (human IgG antibodies): show binding to IgG antibodies
- IgG antibody binding in saliva, compared between glycans (human IgG antibodies): bind significantly less IgG
